Test results published in patent US6897227B2, “Prodrugs of proton pump inhibitors” (Winston Pharmaceuticals, Inc., priority 2002, dated 2005).

Experiments:
[1] = buffer
Experimental: (§2) The stability of Compounds 1, 2, 3, 4 and 5 of the invention in aqueous solution (0.1 mg/mL) was investigated in Britton Robinson buffers of pH 3, pH 7, and pH 9, respectively. A solution of 0.1 mg/mL concentration of each compound in each buffer was prepared and the solutions were stored at 37° C. for 1 h and then the concentrations of test compounds were determined by HPLC.

[2] = test system: histamine and carbachol-stimulated gastric acid secretion; test: Inhibition of gastric acid secretion of the conscious male rat, oral administration; type: in vivo, rat (Sprague-Dawley); details: sodium salt
Experimental: Male rats (the Sprague-Dawley strain) were used in this experiment. OMEPRAZOLE sodium salt or LANSOPRAZOLE sodium salt (20 mg) was suspended in 10 ml of 0.1 N NaHCO3. 40 mg of each of the sodium salts of Compound 1, Compound 2, Compound 3, Compound 4, Compound 6 Compound 9, Compound 12, mixture (1:1) of Compound 16 and 17, mixture (1:1) of Compound 18 and 19, mixture (1:1) of Compound 20 and 21, mixture (1:1) of Compound 22 and 23, Compound 27, mixture (1:1) of Compound 34 and 35, and Compound 36 were dissolved in 10 ml of 50 mM sodium phosphate buffer, pH 7.4. The doses administered to the rats were as follows (μmole per kg body weight of the rat): OMEPRAZOLE (10 μmole/kg), LANSOPRAZOLE (10 μmole/kg), Compound 120 μmole/kg, Compound 2 40 μmole/kg, Compound 320 μmole/kg, Compound 420 μmole/kg, Compound 620 μmole/kg, Compound 940 μmole/kg, Compound 1240 μmole/kg, mixture (1:1) of Compound 16 and 17 40 μmole/kg, mixture (1:1) of Compound 18 and 19 40 μmole/kg, mixture (1:1) of Compound 20 and 21 40 μmole/kg, mixture (1:1) of Compound 22 and 23 40 μmole/kg, Compound 27 40 μmole/kg, mixture (1:1) of Compound 34 and 35 40 μmole/kg, and Compound 3640 μmole/kg. These drug solutions were orally administered.
(§1) 3 hours after administration the abdomen of the rat was incised and the pylorus was ligated under light ether anethesia. Histamine (30 mg/kg) and carbachol (30 μg/kg) were subcutaneously injected for acid stimulation. Immediately the abdomen was closed. Two hours later, the esophagus was ligated and the stomach was removed. The gastric juice was collected and acid output was quantified by titration using 0.1 N NaOH solution. As a control experiment, 1 ml of 50 mM phosphate buffer (pH 7.4) solution was orally administrated without any prodrug or proton pump inhibitory drug. Acid output was quantified by same method as described above, showing maximum histamine and carbachol-stimulated gastric acid secretion. Percentage inhibition was calculated from the fractional responses elicited by the test compound and a control experiment.

[3] = Stability in Britton Robinson buffers (hydrolysis of prodrug to PPI, HPLC); details: Britton Robinson buffer, pH 7
Experimental: as §2

[4] = Solubility in phosphate buffered saline buffer of pH 7.4 at 37° C.; type: physicochemical; details: aqueous buffer, sodium salts, phosphate buffered saline buffer pH 7.4, read-out: Solubility at 37° C. Conc.
Experimental: The solubility of the sodium salts of certain exemplary compounds of the present invention in a phosphate buffered saline buffer of pH 7.4 (50 mM sodium phosphate, 10 mM KCl, 0.1 M NaCl) and also in a more acidic Britton Robinson buffer of pH 3 (40 mM acetic acid, 40 mM phosphoric acid, 40 mM boric acid, 36 mM NaOH, and 19.6 mg/ml KCl) was also evaluated. […] The tested compounds were much less soluble little in the Britton Robinson buffer of pH 3, but still more soluble than the prior art compounds (a) through (f). This is understandable in view of the fact that in the buffer of pH 7.4 the compounds of the invention form a sodium salt, whereas in the buffer of pH 3 the compounds are less soluble free carboxylic acids. Thus, a solution of a sodium or other pharmaceutically acceptable salt of the compounds of the invention, or stated in an other way the compounds of the invention at pH 7 or above are highly soluble and therefore suitable for administration by intravenous injection.

gastric acid secretion = test: Inhibition of gastric acid secretion in rat, intravenous administration; type: in vivo; details: 5 μmole/kg
Experimental: as §1
Inhibition of gastric acid secretion after intravenous administration of compounds of the invention was also examined. Lansoprazole sodium salt (20 mg) was dissolved in 40% hydroxypropyl-beta-cyclodextrin. The compounds of the invention used in this experiment were dissolved in phosphate buffered saline solution of pH 7.4. Each compound was injected intravenously at a dose of 5 μmole/kg or 10 μmole/kg (μmole per kg body weight of rat) as indicated in Table 4 below. Between 2 to 4 hours after injection gastric juice was collected, and the percentage of inhibition was determined as described above.

[5] = Stability in plasma at 37° C. (gradient HPLC-UV), rat plasma; type: in vitro ADME
Experimental: Exemplary test compounds (prodrugs) of the invention were incubated in plasma at 37° C., and the concentration of the compounds and also of the corresponding proton pump inhibitor compounds (PPI) were determined by a gradient HPLC-UV method. Although the half-lives of test compounds in plasma varies depending on their structure, nevertheless it is apparent that in plasma the compounds of the invention are converted into the corresponding proton pump inhibitor at a rate faster than the hydrolysis rate of the compound at neutral or near neutral pH.

[6] = Aqueous solubility (water / distilled water); type: physicochemical; details: free carboxylic acids
Excerpt: A further significant advantage of the proton pump inhibitor prodrugs of the present invention relative to the proton pump inhibitor prodrugs disclosed in U.S. Pat. No. 6,093,734, 6,559,167 and PCT Publication WO 00109498 and to all other prior art is their increased solubility.

Half-life of hydrolysis at pH 7 of the prodrug to the corresponding proton pump inhibitory drug [1]	half-life at 0.1 mg/mL [3]	solubility [4]	half-life [5]	solubility [6]	SMILES	% inhibition of gastric acid secretion between 3-5 hours after administration ([2]; 20 μmole/kg)	% inhibition of gastric acid secretion between 2-4 hours after i.v. administration (gastric acid secretion)	inhibition in vivo at 40 µmol/kg ([2]; 40 μmole/kg, read-out: % inhibition of gastric acid secretion between 3-5 hours after administration)
over 50 hours					CCC(Oc1ccc(S(=O)(=O)n2c([S+]([O-])Cc3nccc(OCC(F)(F)F)c3C)nc3ccccc32)cc1)C(=O)O (centres unmarked) [Compound 4, 2-(4-{2-[3-Methyl-4-(2,2,2-trifluoro-ethoxy)-pyridin-2-ylmethanesulfinyl]-benzimidazole-1-sulfonyl}phenoxy)butric acid]	60.9 ± 25.5%		
	> 50 h	> 50 mg/mL	18 min	> 0.1 mg/mL	Cc1c(OCC(F)(F)F)ccnc1C[S+]([O-])c1nc2ccccc2n1S(=O)(=O)c1ccc(OCC(=O)[O-])cc1.[Na+] (centres unmarked) [Compound 2, (4-{2-[3-Methyl-4-(2,2,2-trifluoro-ethoxy)-pyridin-2-ylmethanesulfinyl]-benzimidazole-1-sulfonyl}-phenoxy)acetic acid sodium salt]		63.1 ± 31.7%	64.2 ± 11.3%
